The source of these data is US11208400B2, “Substituted 6-(1H-pyrazol-1-yl)pyrimidin-4-amine derivatives and uses thereof” (Bayer Aktiengesellschaft, priority 2016, dated 2021).

This assay addresses T1, human Npt2a (Homo sapiens, UniProt Q06495).
T1 construct: expressed in transfected cells
T1 sequence (Q06495 1-639): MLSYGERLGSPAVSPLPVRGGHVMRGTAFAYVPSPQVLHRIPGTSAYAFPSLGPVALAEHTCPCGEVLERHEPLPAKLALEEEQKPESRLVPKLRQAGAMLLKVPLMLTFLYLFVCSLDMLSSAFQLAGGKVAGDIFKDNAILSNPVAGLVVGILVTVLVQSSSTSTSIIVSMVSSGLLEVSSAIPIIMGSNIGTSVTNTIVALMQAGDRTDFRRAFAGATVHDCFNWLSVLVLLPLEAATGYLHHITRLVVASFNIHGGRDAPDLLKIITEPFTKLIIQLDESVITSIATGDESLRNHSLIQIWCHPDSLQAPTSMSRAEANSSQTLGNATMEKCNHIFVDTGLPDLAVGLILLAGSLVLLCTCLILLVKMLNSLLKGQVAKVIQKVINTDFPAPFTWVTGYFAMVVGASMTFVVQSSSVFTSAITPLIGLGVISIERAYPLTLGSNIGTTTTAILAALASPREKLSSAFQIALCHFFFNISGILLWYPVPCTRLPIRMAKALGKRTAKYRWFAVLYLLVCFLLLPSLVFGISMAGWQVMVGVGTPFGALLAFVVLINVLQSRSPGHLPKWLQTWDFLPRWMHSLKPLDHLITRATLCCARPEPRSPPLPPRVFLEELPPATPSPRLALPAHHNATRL
Description: Npt2a activity cell based assay, membrane potential dye, CHO T-REx hNpt2a cells. Particulars: doxycycline-induced, depolarization by sodium phosphate influx, average or median values if tested more than once. The procedure:
For measuring Npt2a activity in a cell based assay, a stable CHO cell line with inducible Npt2a expression was generated. Therefore, CHO T-Rex cells (life technologies cat. R718-07) were stably transfected with doxycycline-inducible human NPT2a (pcDNA5TO-hNpt2a). The obtained CHO T-REx hNpt2a cells were routinely cultured in Dulbecco's MEM/F12 (4.5 g/l Glucose, Gibco cat. 21331-020; 500 mL) supplemented with 10 ml Glutamax 100×, Sodium pyruvate (7 mL of 100 mM solution), HEPES (10 mL of 1 M solution), Sodium bicarbonate (10 mL of 7.5% solution), 10% Fetal Bovine Serum Tetracycline free (Clontech cat. 631106, 500 ml), Penicillin-Streptomycin (5 mL of 100× Solution), Blasticidin 10 μg/mL and 400 μg/mL Hygromycin.
Activity of Npt2a was detected by following depolarization of cellular membrane potential by influx of sodium phosphate using fluorescent membrane potential dye kit BLUE (Molecular devices cat. R8034). For Npt2a activity measurements, CHO T-Rex hNpt2a cells were seeded into 1536 well microtiter plates (GREINER Bio-One cat. 782092) with 750 cells/well in 7 μL/w of complete medium (2% Tetracycline-free FBS, 2% Poly-D-Lysine) without selective agents+Doxycycline 0.5 μg/mL to induce Npt2a gene expression, and grown for 24 h at 37° C., 5% carbon dioxide.
On the day of experiment a 1×MPdye Loading Solution was freshly prepared by re-suspending 15 mg of Blue MPdye powder in 10 mL of NHE buffer sodium-free (140 mM N-Methyl-D-glucamine, 5.4 mM KCl, 1 mM CaCl2, 11 mM D(±)-Glucose water free, 1.2 mM MgCl2, 10 mM HEPES; pH 7.4 (adjusted with hydrochloric acid); sterile filtered). 5 μl medium was removed from plates by robotic manipulation, then 5 μL/well of sodium-free NHE buffer was added. After incubation for 2 min, this washing step was repeated once. Then, 5 μL/w of buffer was removed from plates and cells were incubated for 5 min at room temperature with 5 μL/w of MPdye Loading Solution (1× in Sodium-free NHE Buffer). Test compounds were added to the cells at final test concentrations between 50 μM and 1 nM (0.6 μL/well, final DMSO 0.6%, prepared in MPDye Loading Solution) and incubated for 5 min at room temperature.
Plates were analyzed with an in house CCD camera device using a λexc 510-545 nm/λem 565-625 nm filter. Fluorescence was detected for 15 sec (background measurement M1). Activity of Npt2a was triggered by addition of 2 μL/well of 30 mM Na+ and 1 mM phosphate (prepared in a mixture of NHE Buffer Na+ free and NHE Buffer 140 mM Na+). Fluorescence was followed for 2-3 min (depolarization measurement M2). Data was normalized to cell number and dye loading efficiency by calculating M2/M1. This quotient was plotted against test compound concentration. Graph Pad Prism or equivalent in house software was used to create sigmoidal dose-response curves (variable slope) and determine IC50 values.
With `Cc1nn(-c2cc(Nc3c(C)c(-c4ccc(F)cc4)nn3CC3CC3)ncn2)c(C)c1C(C)O` (single isomer, unassigned) [Example 329, 1-[1-(6-{[1-(cyclopropylmethyl)-3-(4-fluorophenyl)-4-methyl-1H-pyrazol-5-yl]amino}pyrimidin-4-yl)-3,5-dimethyl-1H-pyrazol-4-yl]ethanol], the half-maximal inhibitory concentration (IC50) was determined as 67 nM.
The molecule `Cc1nn(-c2cc(Nc3c(C)c(-c4ccc(F)cc4)nn3CC3CC3)ncn2)c(C)c1C(C)O` (single isomer, unassigned) [Example 330, 1-[1-(6-{[1-(cyclopropylmethyl)-3-(4-fluorophenyl)-4-methyl-1H-pyrazol-5-yl]amino}pyrimidin-4-yl)-3,5-dimethyl-1H-pyrazol-4-yl]ethanol] yielded a concentration for half-maximal inhibition (IC50) of 22 nM.
The same measure for `COc1c(-c2ccc(C#N)cc2)nn(CC2CC2)c1Nc1cc(-n2nc(C)c(C(C)O)c2C)ncn1` (single isomer, unassigned) [Example 332, 4-{1-(cyclopropylmethyl)-5-[(6-{4-[1-hydroxyethyl]-3,5-dimethyl-1H-pyrazol-1-yl}pyrimidin-4-yl)amino]-4-methoxy-1H-pyrazol-3-yl}benzonitrile]: 1900 nM; for `COc1c(-c2ccc(C#N)cc2)nn(CC2CC2)c1Nc1cc(-n2nc(C)c(C(C)OC)c2C)ncn1` (single isomer, unassigned) [Example 334, 4-{1-(cyclopropylmethyl)-4-methoxy-5-[(6-{4-[1-methoxyethyl]-3,5-dimethyl-1H-pyrazol-1-yl}pyrimidin-4-yl)amino]-1H-pyrazol-3-yl}benzonitrile]: 41 nM; for `COc1c(-c2ccc(C#N)cc2)nn(CC2CC2)c1Nc1cc(-n2nc(C)c(C(C)OC)c2C)ncn1` (single isomer, unassigned) [Example 335]: 51 nM.
In the case of `COC(C)c1c(C)nn(-c2cc(Nc3c(C)c(-c4ccc(C#N)cc4)nn3C)ncn2)c1C` (single isomer, unassigned) [Example 339, 4-{5-[(6-{4-[1-methoxyethyl]-3,5-dimethyl-1H-pyrazol-1-yl}pyrimidin-4-yl)amino]-1,4-dimethyl-1H-pyrazol-3-yl}benzonitrile] it was 8 nM; in that of `COC(C)c1c(C)nn(-c2cc(Nc3c(C)c(-c4ccc(C#N)cc4)nn3C)ncn2)c1C` (single isomer, unassigned) [Example 340, 4-{5-[(6-{4-[1-methoxyethyl]-3,5-dimethyl-1H-pyrazol-1-yl}pyrimidin-4-yl)amino]-1,4-dimethyl-1H-pyrazol-3-yl}benzonitrile], 12 nM.
In the case of `COC(C)c1c(C)nn(-c2cc(Nc3nn(C)c(-c4ccc(F)cc4)c3C)ncn2)c1C` (single isomer, unassigned) [Example 344, N-[5-(4-fluorophenyl)-1,4-dimethyl-1H-pyrazol-3-yl]-6-{4-[1-methoxyethyl]-3,5-dimethyl-1H-pyrazol-1-yl}pyrimidin-4-amine] it was 5 nM; in that of `COC(C)c1c(C)nn(-c2cc(Nc3nn(C)c(-c4ccc(F)cc4)c3C)ncn2)c1C` (single isomer, unassigned) [Example 345, N-[5-(4-fluorophenyl)-1,4-dimethyl-1H-pyrazol-3-yl]-6-{4-[1-methoxyethyl]-3,5-dimethyl-1H-pyrazol-1-yl}pyrimidin-4-amine], 7 nM.
In turn, `Cc1nn(-c2cc(Nc3c(C)c(-c4ccc(C#N)cc4)nn3CC3CC3)ncn2)c(C)c1C(O)C(F)(F)F` (single isomer, unassigned) [Example 359, 4-{1-(cyclopropylmethyl)-5-[(6-{3,5-dimethyl-4-[2,2,2-trifluoro-1-hydroxyethyl]-1H-pyrazol-1-yl}pyrimidin-4-yl)amino]-4-methyl-1H-pyrazol-3-yl}benzonitrile] displayed a 50% inhibitory concentration (IC50) of 15 nM.
`Cc1nn(-c2cc(Nc3c(C)c(-c4ccc(C#N)cc4)nn3CC3CC3)ncn2)c(C)c1C(O)C(F)(F)F` (single isomer, unassigned) [Example 360, 4-{1-(cyclopropylmethyl)-5-[(6-{3,5-dimethyl-4-[(1 S)-2,2,2-trifluoro-1-hydroxyethyl]-1H-pyrazol-1-yl}pyrimidin-4-yl)amino]-4-methyl-1H-pyrazol-3-yl}benzonitrile] yielded a half-inhibitory concentration (IC50) of 6 nM.
In the case of `Cc1cc(C)n(-c2cc(Nc3c(C)c(-c4ccc(F)cc4)nn3CC(O)C3CC3)ncn2)n1` (single isomer, unassigned) [Example 370, 1-cyclopropyl-2-[5-{[6-(3,5-dimethyl-1H-pyrazol-1-yl)pyrimidin-4-yl]amino}-3-(4-fluorophenyl)-4-methyl-1H-pyrazol-1-yl]ethanol] it was 2400 nM; in that of `Cc1cc(C)n(-c2cc(Nc3c(C)c(-c4ccc(F)cc4)nn3CC(O)C3CC3)ncn2)n1` (single isomer, unassigned) [Example 371, 1-cyclopropyl-2-[5-{[6-(3,5-dimethyl-1H-pyrazol-1-yl)pyrimidin-4-yl]amino}-3-(4-fluorophenyl)-4-methyl-1H-pyrazol-1-yl]ethanol], 240 nM; in that of `Cc1nn(-c2cc(Nc3c(C)c(-c4ccc(F)cc4)nn3CC3CC3)ncn2)c(C)c1C(O)C(F)(F)F` (single isomer, unassigned) [Example 375, 1-[1-(6-{[1-(cyclopropylmethyl)-3-(4-fluorophenyl)-4-methyl-1H-pyrazol-5-yl]amino}pyrimidin-4-yl)-3,5-dimethyl-1H-pyrazol-4-yl]-2,2,2-trifluoroethanol], 40 nM.
With `Cc1nn(-c2cc(Nc3c(C)c(-c4ccc(F)cc4)nn3CC3CC3)ncn2)c(C)c1C(O)C(F)(F)F` (single isomer, unassigned) [Example 376, 1-[1-(6-{[1-(cyclopropylmethyl)-3-(4-fluorophenyl)-4-methyl-1H-pyrazol-5-yl]amino}pyrimidin-4-yl)-3,5-dimethyl-1H-pyrazol-4-yl]-2,2,2-trifluoroethanol], the midpoint of inhibition, the IC50, lay at 8 nM.
The same measure for `Cc1nn(-c2cc(Nc3c(C)c(-c4ccc(F)cc4)nn3CC3CC3)ncn2)c(C)c1C(O)C1CC1` (single isomer, unassigned) [Example 419, cyclopropyl[1-(6-{[1-(cyclopropylmethyl)-3-(4-fluorophenyl)-4-methyl-1H-pyrazol-5-yl]amino}pyrimidin-4-yl)-3,5-dimethyl-1H-pyrazol-4-yl]methanol]: 14 nM.
The molecule `Cc1nn(-c2cc(Nc3c(C)c(-c4ccc(F)cc4)nn3CC3CC3)ncn2)c(C)c1C(O)C1CC1` (single isomer, unassigned) [Example 420, cyclopropyl[1-(6-{[1-(cyclopropylmethyl)-3-(4-fluorophenyl)-4-methyl-1H-pyrazol-5-yl]amino}pyrimidin-4-yl)-3,5-dimethyl-1H-pyrazol-4-yl]methanol] gave an IC50 of 24 nM.
In the case of `Cc1nn(-c2cc(Nc3c(C)c(-c4ccc(C(F)F)cc4)nn3CC3CC3)ncn2)c(C)c1C(O)C1CC1` (single isomer, unassigned) [Example 495, Cyclopropyl {1-[6-({1-(cyclopropylmethyl)-3-[4-(difluoromethyl)phenyl]-4-methyl-1H-pyrazol-5-yl}amino)pyrimidin-4-yl]-3,5-dimethyl-1H-pyrazol-4-yl}methanol] it was 11 nM.
